In ChEMBL document CHEMBL1201862, “PubChem BioAssay data set” (2004):
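Results reflect a 48-hour exposure of cells in 96-well plates to compound at five concentrations. GI50 is the concentration that inhibits growth by half.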 The source made the active and inactive calls. Rule as the data show it: active = GI50 up to about 1.1 µM and inactive = higher.

Key:
Test in all cases: NCI anticancer screen, dose series, 48 h
SK-MEL-5 = system: SK-MEL-5
SF-268 = system: SF-268
NCI-H23 = system: NCI-H23
ACHN = system: ACHN
K562 = system: K562
M14 = system: M14
SN12C = system: SN12C
786-0 = system: 786-0
UO-31 = system: UO-31
U-251 = system: U-251
RXF 393 = system: RXF 393
OVCAR-5 = system: OVCAR-5
SK-MEL-2 = system: SK-MEL-2
IGROV-1 = system: IGROV-1
SNB-75 = system: SNB-75
MDA-MB-231 = system: MDA-MB-231
SW-620 = system: SW-620
PC-3 = system: PC-3
HCC 2998 = system: HCC 2998
SR = system: SR
MDA-N = system: MDA-N
KM12 = system: KM12
HOP-62 = system: HOP-62
NCI/ADR-RES = system: NCI/ADR-RES
A549 = system: A549
NCI-H460 = system: NCI-H460
MDA-MB-435 = system: MDA-MB-435
SK-MEL-28 = system: SK-MEL-28
DU-145 = system: DU-145
NCI-H226 = system: NCI-H226
OVCAR-3 = system: OVCAR-3
TK-10 = system: TK-10
Hs-578T = system: Hs-578T
SF-539 = system: SF-539
Malme-3M = system: Malme-3M
COLO 205 = system: COLO 205
SNB-19 = system: SNB-19
MOLT-4 = system: MOLT-4
MCF7 = system: MCF7
NCI-H522 = system: NCI-H522
HCT-15 = system: HCT-15
SF-295 = system: SF-295
OVCAR-8 = system: OVCAR-8
UACC-257 = system: UACC-257
CAKI-1 = system: CAKI-1
RPMI-8226 = system: RPMI-8226
HOP-92 = system: HOP-92
UACC-62 = system: UACC-62
BT-549 = system: BT-549
HT-29 = system: HT-29
SK-OV-3 = system: SK-OV-3
HCT-116 = system: HCT-116
HL-60 = system: HL-60
OVCAR-4 = system: OVCAR-4
T47D = system: T47D
CCRF-CEM = system: CCRF-CEM
EKVX = system: EKVX
A498 = system: A498
LOX IMVI = system: LOX IMVI

Measured: GI50

COC(=O)c1ccc(COC(=O)N2C=CCC2C(=O)O)cc1 (configuration not stated)
inactive: SK-MEL-5 > 100 µM | SF-268 > 100 µM | NCI-H23 > 100 µM | ACHN > 100 µM | K562 > 100 µM | M14 > 100 µM | SN12C > 100 µM | 786-0 > 100 µM | UO-31 > 100 µM | U-251 > 100 µM | RXF 393 > 100 µM | OVCAR-5 > 100 µM | SK-MEL-2 > 100 µM | IGROV-1 > 100 µM | SNB-75 > 100 µM | MDA-MB-231 > 100 µM | SW-620 > 100 µM | PC-3 > 100 µM | HCC 2998 > 100 µM | SR > 100 µM | MDA-N > 100 µM | KM12 > 100 µM | HOP-62 > 100 µM | NCI/ADR-RES > 100 µM | A549 > 100 µM | NCI-H460 > 100 µM | MDA-MB-435 > 100 µM | SK-MEL-28 > 100 µM | DU-145 > 100 µM | NCI-H226 > 100 µM | OVCAR-3 > 100 µM | TK-10 > 100 µM | Hs-578T > 100 µM | SF-539 > 100 µM | Malme-3M > 100 µM | COLO 205 > 100 µM | SNB-19 > 100 µM | MOLT-4 > 100 µM | MCF7 > 100 µM | NCI-H522 > 100 µM | SF-295 > 100 µM | OVCAR-8 > 100 µM | UACC-257 > 100 µM | CAKI-1 > 100 µM | RPMI-8226 > 100 µM | HOP-92 63 µM | UACC-62 > 100 µM | BT-549 > 100 µM | HT-29 > 100 µM | SK-OV-3 > 100 µM
> 100 µM: HCT-15

CC(=O)c1cn(-c2ccc(Cl)cc2)c(=O)c2c(N)n[nH]c12
inactive: HCT-116 > 100 µM | SK-MEL-5 > 100 µM | SF-268 > 100 µM | NCI-H23 > 100 µM | ACHN 25.6 µM | K562 22.3 µM | 786-0 > 100 µM | UO-31 > 100 µM | HL-60 > 100 µM | U-251 > 100 µM | OVCAR-4 > 100 µM | RXF 393 > 100 µM | SK-MEL-2 > 100 µM | IGROV-1 > 100 µM | SNB-75 > 100 µM | MDA-MB-231 > 100 µM | SW-620 > 100 µM | PC-3 > 100 µM | HCC 2998 > 100 µM | SR > 100 µM | KM12 > 100 µM | T47D > 100 µM | HOP-62 > 100 µM | NCI/ADR-RES > 100 µM | NCI-H460 > 100 µM | MDA-MB-435 > 100 µM | CCRF-CEM > 100 µM | SK-MEL-28 > 100 µM | EKVX > 100 µM | DU-145 > 100 µM | A498 > 100 µM | NCI-H226 > 100 µM | LOX IMVI 43 µM | TK-10 > 100 µM | Hs-578T > 100 µM | COLO 205 > 100 µM | SNB-19 > 100 µM | MOLT-4 > 100 µM | SF-295 > 100 µM | OVCAR-8 > 100 µM | UACC-257 > 100 µM | CAKI-1 > 100 µM | RPMI-8226 > 100 µM | UACC-62 41.7 µM | BT-549 2.56 µM | HT-29 > 100 µM | SK-OV-3 > 100 µM
> 100 µM: HCT-15

COC(=O)c1ccccc1Nc1nc(-c2cccs2)nc2cc(OC)c(OC)cc12
inactive: HCT-116 37.5 µM | SK-MEL-5 > 100 µM | SF-268 46.3 µM | NCI-H23 17.4 µM | ACHN 47.8 µM | K562 > 100 µM | M14 > 100 µM | SN12C 48.5 µM | 786-0 38.8 µM | UO-31 > 100 µM | HL-60 > 100 µM | U-251 31.2 µM | OVCAR-4 40.6 µM | RXF 393 68.1 µM | OVCAR-5 36.2 µM | SK-MEL-2 64.7 µM | IGROV-1 14.7 µM | SNB-75 75.3 µM | MDA-MB-231 28.9 µM | SW-620 > 100 µM | PC-3 52.2 µM | SR 18 µM | KM12 71.8 µM | T47D 37 µM | HOP-62 18.3 µM | NCI/ADR-RES 57 µM | A549 54 µM | NCI-H460 58.6 µM | MDA-MB-435 > 100 µM | SK-MEL-28 > 100 µM | EKVX 37.9 µM | DU-145 92.3 µM | A498 > 100 µM | NCI-H226 23.4 µM | LOX IMVI 39.4 µM | OVCAR-3 40.2 µM | TK-10 28.3 µM | Hs-578T 30.3 µM | SF-539 27.4 µM | Malme-3M 61 µM | COLO 205 45.4 µM | SNB-19 33.1 µM | MOLT-4 57.9 µM | MCF7 72.3 µM | NCI-H522 59.7 µM | SF-295 29.2 µM | OVCAR-8 15.2 µM | UACC-257 70.8 µM | CAKI-1 39.4 µM | RPMI-8226 49.8 µM | HOP-92 44.5 µM | UACC-62 52.6 µM | BT-549 > 100 µM | HT-29 > 100 µM | SK-OV-3 55.7 µM
90.2 µM: HCT-15

COc1ccc(NC(=O)CC(=O)N2N=C(N3c4ccccc4Sc4ccccc43)CC2c2ccccc2)cc1 (configuration not stated)
> 100 µM: HCT-15
inactive: HCT-116 > 100 µM | SK-MEL-5 > 100 µM | SF-268 23.4 µM | NCI-H23 > 100 µM | ACHN > 100 µM | K562 > 100 µM | M14 > 100 µM | SN12C > 100 µM | 786-0 > 100 µM | UO-31 > 100 µM | HL-60 > 100 µM | U-251 > 100 µM | OVCAR-4 > 100 µM | RXF 393 > 100 µM | OVCAR-5 > 100 µM | SK-MEL-2 > 100 µM | IGROV-1 > 100 µM | SNB-75 47.6 µM | MDA-MB-231 > 100 µM | SW-620 > 100 µM | PC-3 > 100 µM | HCC 2998 > 100 µM | SR > 100 µM | KM12 > 100 µM | T47D > 100 µM | HOP-62 > 100 µM | NCI/ADR-RES > 100 µM | A549 > 100 µM | NCI-H460 > 100 µM | MDA-MB-435 > 100 µM | CCRF-CEM > 100 µM | SK-MEL-28 > 100 µM | EKVX > 100 µM | DU-145 > 100 µM | NCI-H226 > 100 µM | OVCAR-3 > 100 µM | TK-10 > 100 µM | Hs-578T 39.7 µM | SF-539 > 100 µM | COLO 205 > 100 µM | SNB-19 > 100 µM | MOLT-4 > 100 µM | MCF7 > 100 µM | NCI-H522 > 100 µM | SF-295 > 100 µM | OVCAR-8 > 100 µM | UACC-257 > 100 µM | CAKI-1 > 100 µM | RPMI-8226 > 100 µM | HOP-92 > 100 µM | UACC-62 > 100 µM | BT-549 > 100 µM | HT-29 > 100 µM | SK-OV-3 > 100 µM

O/N=N/c1ccc(-c2ccccc2)cn1
19.6 µM: HCT-15
active: HL-60 0.176 µM | MOLT-4 0.0755 µM | RPMI-8226 < 0.01 µM
inactive: HCT-116 9.08 µM | SK-MEL-5 11.9 µM | SF-268 4.59 µM | NCI-H23 4 µM | ACHN 2.86 µM | K562 19.6 µM | M14 9.08 µM | SN12C 10.8 µM | 786-0 6.38 µM | UO-31 13.2 µM | U-251 15.7 µM | OVCAR-4 23.3 µM | RXF 393 1.38 µM | OVCAR-5 20.3 µM | SK-MEL-2 31.6 µM | IGROV-1 27.7 µM | SNB-75 6.46 µM | MDA-MB-231 28.6 µM | SW-620 10.7 µM | PC-3 7.4 µM | HCC 2998 16.9 µM | KM12 33.9 µM | T47D 8.18 µM | HOP-62 3.45 µM | NCI/ADR-RES 8.77 µM | A549 21.7 µM | NCI-H460 6.25 µM | MDA-MB-435 14.7 µM | CCRF-CEM 2.2 µM | SK-MEL-28 45.2 µM | EKVX 7.5 µM | DU-145 2.22 µM | A498 13 µM | NCI-H226 17.9 µM | LOX IMVI 6.21 µM | OVCAR-3 20.2 µM | TK-10 22.3 µM | Hs-578T 23.8 µM | SF-539 17.4 µM | Malme-3M 11.5 µM | COLO 205 15 µM | SNB-19 18.1 µM | MCF7 1.44 µM | NCI-H522 18.8 µM | SF-295 8.13 µM | OVCAR-8 15 µM | UACC-257 43.9 µM | CAKI-1 4.55 µM | HOP-92 1.32 µM | UACC-62 7.64 µM | BT-549 30.7 µM | HT-29 20.6 µM | SK-OV-3 20.3 µM
